# Values joined by “and” are separate entries in the source; they are usually repeats but may differ in a detail not shown here. Equal values may be shown once.
# Legend:
# PEO1 cells = assay: ALDEFLUOR assay of ALDH activity in live PEO1 cells; type: cell-based
# [1] = tested on: CD133+ cells (A2780, OVSAHO, OvCAR5); assay: Depletion of CD133+ CSC by FACS 72 h after treatment; type: cell-based
# SKOv3 cells = type: in vivo, mice
# [2] = tested on: non-malignant MCF10A cells; assay: Toxicity to normal cells; type: cell-based
# [3] = tested on: primary cells from HGSC patients; assay: Seahorse mitochondrial flux analysis; type: cell-based, human; details: 12.5 μM
# [4] = tested on: primary patient cells (HGS); assay: Tumor sphere growth assay; type: cell-based, human; details: single 12.5 μM dose
# ALDH1A3 = ALDH1A3 (Homo sapiens, UniProt P47895); assay: ALDH enzymatic activity, in vitro inhibition; type: biochemical; details: IC50 ALDH1A3, in vitro enzymatic assay, propionaldehyde/NAD+
# Sequence of ALDH1A3 (P47895 whole entry): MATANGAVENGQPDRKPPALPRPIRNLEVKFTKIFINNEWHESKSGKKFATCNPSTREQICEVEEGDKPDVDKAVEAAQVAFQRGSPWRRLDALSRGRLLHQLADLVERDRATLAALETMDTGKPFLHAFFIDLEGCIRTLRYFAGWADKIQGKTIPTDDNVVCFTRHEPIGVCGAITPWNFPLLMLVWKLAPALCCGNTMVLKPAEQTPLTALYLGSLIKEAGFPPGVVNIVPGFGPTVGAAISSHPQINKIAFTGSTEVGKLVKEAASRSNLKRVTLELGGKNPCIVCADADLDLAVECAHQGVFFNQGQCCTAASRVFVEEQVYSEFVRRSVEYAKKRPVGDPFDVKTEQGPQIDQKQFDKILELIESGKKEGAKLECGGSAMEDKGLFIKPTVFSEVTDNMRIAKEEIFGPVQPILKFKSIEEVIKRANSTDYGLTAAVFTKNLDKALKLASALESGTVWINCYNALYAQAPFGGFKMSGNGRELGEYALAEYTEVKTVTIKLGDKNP
# ALDH2 = ALDH2 (Homo sapiens, UniProt P05091); assay: biochemical
# Sequence of ALDH2 (P05091 18-517): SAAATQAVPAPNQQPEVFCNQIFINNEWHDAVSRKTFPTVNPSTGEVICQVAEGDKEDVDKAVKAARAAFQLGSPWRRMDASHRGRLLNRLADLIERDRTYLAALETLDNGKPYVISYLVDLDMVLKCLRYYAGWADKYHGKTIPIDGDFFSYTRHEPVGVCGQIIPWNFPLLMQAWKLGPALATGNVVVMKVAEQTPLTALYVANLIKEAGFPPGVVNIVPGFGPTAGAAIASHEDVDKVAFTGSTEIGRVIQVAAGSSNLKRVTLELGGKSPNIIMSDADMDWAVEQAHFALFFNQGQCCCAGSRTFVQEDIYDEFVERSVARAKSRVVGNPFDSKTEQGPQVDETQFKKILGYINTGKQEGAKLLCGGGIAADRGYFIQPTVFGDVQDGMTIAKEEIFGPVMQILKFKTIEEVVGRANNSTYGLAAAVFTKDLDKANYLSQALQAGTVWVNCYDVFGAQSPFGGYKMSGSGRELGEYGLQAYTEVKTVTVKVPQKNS
# [5] = tested on: FACS-isolated ALDH+CD133+ A2780 cells; assay: Single-cell microfluidic culture cell death; type: cell-based; details: microfluidic chips, 72 h
# CaoV3 cells = assay: Minimal residual disease model, CaoV3 subcutaneous; details: 3 weeks treatment, 6 months follow-up
# [6] = target: ALDH1A1 Cys303 in SKOv3 tumors (Homo sapiens, UniProt P00352); assay: isoTOP-ABPP of ALDH1A in tumors in vivo; parameters: species or system mice; details: 673A-treated tumors
# Sequence of ALDH1A1 Cys303 in SKOv3 tumors (P00352 whole entry): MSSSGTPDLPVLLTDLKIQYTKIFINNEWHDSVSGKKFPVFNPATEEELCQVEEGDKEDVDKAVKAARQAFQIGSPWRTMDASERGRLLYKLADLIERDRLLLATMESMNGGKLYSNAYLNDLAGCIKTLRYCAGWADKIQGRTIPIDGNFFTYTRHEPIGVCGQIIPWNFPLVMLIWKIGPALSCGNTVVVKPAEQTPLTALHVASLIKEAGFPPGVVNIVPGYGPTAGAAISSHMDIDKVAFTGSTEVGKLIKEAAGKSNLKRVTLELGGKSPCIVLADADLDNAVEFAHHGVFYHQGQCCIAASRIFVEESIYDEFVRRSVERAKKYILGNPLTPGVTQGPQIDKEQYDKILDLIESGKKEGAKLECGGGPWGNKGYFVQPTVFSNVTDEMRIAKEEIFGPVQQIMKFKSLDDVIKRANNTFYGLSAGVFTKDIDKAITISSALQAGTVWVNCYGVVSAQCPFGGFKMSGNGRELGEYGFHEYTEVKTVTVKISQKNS
# ALDH1A1 = ALDH1A1 (Homo sapiens, UniProt P00352); assay: ALDH enzymatic activity, in vitro inhibition; type: biochemical; details: IC50 ALDH1A1, in vitro enzymatic assay, propionaldehyde/NAD+
# Sequence of ALDH1A1 (P00352 whole entry): as above
# [7] = tested on: chemotherapy-resistant SKOv3 cells; assay: Cellular recovery assay with cisplatin; type: cell-based; details: for cellular recovery: SKOv3, 9 days after treatment, single agent
# CD133+ cells = assay: Intracellular calcium level; type: cell-based
# [8] = tested on: endometrioid ovarian cancer
# ALDH1A2 = ALDH1A2 (Homo sapiens, UniProt O94788); assay: ALDH enzymatic activity, in vitro inhibition; type: biochemical; details: IC50 ALDH1A2, in vitro enzymatic assay, propionaldehyde/NAD+
# Sequence of ALDH1A2 (O94788 whole entry): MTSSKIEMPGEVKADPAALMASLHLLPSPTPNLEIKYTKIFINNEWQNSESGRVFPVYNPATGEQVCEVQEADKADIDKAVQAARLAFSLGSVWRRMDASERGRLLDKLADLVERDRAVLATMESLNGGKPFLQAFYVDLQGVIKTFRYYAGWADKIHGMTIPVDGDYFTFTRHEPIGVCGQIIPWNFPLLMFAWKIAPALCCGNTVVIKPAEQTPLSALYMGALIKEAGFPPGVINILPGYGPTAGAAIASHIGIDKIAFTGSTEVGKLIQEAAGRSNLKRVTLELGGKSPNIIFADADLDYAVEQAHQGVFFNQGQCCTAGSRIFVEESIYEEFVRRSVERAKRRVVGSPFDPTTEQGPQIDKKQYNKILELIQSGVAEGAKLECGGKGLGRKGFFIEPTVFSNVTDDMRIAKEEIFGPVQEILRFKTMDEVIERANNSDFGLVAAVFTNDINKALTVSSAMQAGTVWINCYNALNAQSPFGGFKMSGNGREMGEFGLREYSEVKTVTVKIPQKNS
# platinum-resistant PDX = assay: Chemotherapy-resistant patient-derived xenograft; type: in vivo, mice; details: 673A added to carboplatin or cisplatin
# [9] = Hematologic, renal, and liver function tests; type: in vivo; details: liver function tests, 673A added to cisplatin
# splenocytes = assay: ALDEFLUOR activity in splenocytes of treated animals; type: in vivo, mice; details: animals being treated with 673A
# [10] = tested on: bulk cells, multiple cell lines; assay: Bulk cell viability in multiple cell lines; type: cell-based
# [11] = tested on: FACS-sorted CD133+ (A2780) cells; assay: Annexin-V/PI FACS analysis of apoptosis; type: cell-based; details: 12.5 μM
# [12] = tested on: OVCAR5-ALDH1A3-knockout (KO) cells; assay: 673 dose-response in CRISPR knockout cells; type: cell-based
# [13] = tested on: human mesenchymal stem cells; assay: Toxicity to normal cells; type: cell-based
# [14] = tested on: Ovsaho, HEY-1, and A2780 cell-line xenografts; assay: Cell-line xenografts, single agent
# [15] = tested on: FACS-sorted ALDH+ SKOv3 cells; assay: Intraperitoneal ALDH+ SKOv3 survival study
# [16] = tested on: other ALDH family members; assay: ALDH enzymatic activity, in vitro inhibition; type: biochemical; details: in vitro enzymatic assay
compound,measurement,setting,value
"CCN(CC)c1ccc(C=O)cc1 [DEAB, N,N-diethylaminobenzaldehyde, reference compound]",inhibition of ALDEFLUOR activity,"PEO1 cells; PEO1 cells, 6 h, equimolar doses (25 μM)",40%
same,depletion of CD133+ CSCs / toxicity,[1],preferential depletion of CD133^+ cells
"CCN(CC)C(=S)SSC(=S)N(CC)CC [DSF, disulfiram, reference compound]",effect on cancer growth,"SKOv3 cells; SKOv3 treated in vitro, 5,000 live cells injected",no effect on cancer growth
"O=Cc1ccc(N2Cc3ccccc3C2)cc1 [673A, 4-(1,3-dihydro-2H-isoindol-2-yl)benzaldehyde]",toxicity to non-malignant MCF10A cells,[2],little or no toxicity
same,tumor initiation capacity,SKOv3 cells; 673A combined with cisplatin therapy,eliminated tumor initiation capacity
same,reduction in tumor growth versus no treatment or cisplatin therapy,"SKOv3 cells; SKOv3 treated in vitro 12.5 μM, 48 h, 5,000 live cells injected",4–5 fold
same,reduction of tumor initiation,"SKOv3 cells; limiting dilution assay, 673A alone",~ 50%
same,OXPHOS capacity,[3],decreased OXPHOS capacity
same,average reduction in tumor sphere formation,[4],19 fold
same,inhibition at 25 µM,"PEO1 cells; Homo sapiens, PEO1, 6 h, read-out: inhibition of ALDEFLUOR activity",98%
same,time to inhibition of PEO1 ALDEFLUOR activity,"PEO1 cells; PEO1 cells, persisted after 6 h",≤ 1 h
same,IC50,ALDH1A3,348 nM and < 350 nM
same,IC50,ALDH2,14000 nM and ~15000 nM
same,treated cells that died,[5],> 90%
same,mice that developed tumors,CaoV3 cells; cisplatin and 673A,40%
same,mice that developed tumors,CaoV3 cells; single agent,50%
same,depletion of CD133+ CSCs / toxicity,[1],highly effective at preferentially depleting CD133^+ CSC
same,engagement of ALDH1A1 catalytic residue,[6],clear protection of the catalytic residue Cys303 in ALDH1A1
same,IC50,ALDH1A1,246 nM and < 350 nM
same,reduction in cell number,"[7]; SKOv3, 9 days after combined treatment of cisplatin and 673A",30 fold
same,cellular recovery,[7],100%
same,increase in intracellular Ca,CD133+ cells; 16 h after treatment,1.5 fold
same,increase in intracellular Ca,CD133+ cells; 24 h after treatment,6 fold
same,mice tumor free at conclusion of experiment,[8]; carboplatin weekly and 673A 20 mg/kg daily for 7 weeks,27%
same,IC50,ALDH1A2,230 nM and < 350 nM
same,reduction of final tumor weight,platinum-resistant PDX,more than 2 fold
same,toxicity with addition to cisplatin,[9],no additional toxicity
same,decrease of ALDEFLUOR activity in splenocytes,splenocytes,3 fold
same,TD50 bulk cell viability,[10],40 to 80 µM
same,induction of annexin-V,[11],no significant early or late induction of annexin-V
same,increase in TD50 versus control cells,[12],~ 10 ×
same,toxicity to human mesenchymal stem cells,[13],little or no toxicity
same,reduction of tumor burden,[14]; 20 mg/kg daily for 21 days,40%–60%
same,reduction of tumor growth as a single agent,"[14]; in vivo, single agent",> 50%
same,mice disease free at 6 months,[15]; cisplatin and 673A,62%
same,inhibition of other ALDH family members tested,[16],minimal or no inhibition
"O=c1c(-c2ccc(O)cc2)coc2cc(O[C@@H]3O[C@H](CO)[C@@H](O)[C@H](O)[C@H]3O)ccc12 [daidzin, reference compound]",depletion of CD133+ CSCs / toxicity,[1],no significant toxicity
same,therapeutic benefit of addition to cisplatin,"[7]; SKOv3, added to cisplatin",No therapeutic benefit
"N.N.O=C([O-])C1(C(=O)[O-])CCC1.[Pt+2] [carboplatin, reference compound]",mice tumor free after therapy,"[8]; carboplatin alone, 25 mg/kg weekly",16%
"N.N.[Cl][Pt][Cl] [cisplatin, reference compound]",mice that developed tumors,CaoV3 cells; single agent,Ninety
same,cellular recovery,[7],100%
same,mice that died,[15]; cisplatin only,100%

# From PMC7061440 (Cell reports, 2019)
